Among the data in patent US8263606B2 (Xenon Pharmaceuticals Inc., priority 2008, dated 2012) are melting point, IC50 and inhibition values, retold here.

A word on the melting point: it is the temperature of the solid-liquid transition. As a reminder, the IC50 is the concentration that inhibits the measured activity by half. For orientation: inhibition means the percentage by which the read-out fell short of the control.

One data set has as its system sodium channel. Briefly: Guanidine influx assay (14C-guanidine radiotracer flux, in vitro). It is filed as cell-based, human or rat. As to conditions: guanidine influx assay using a known cell line that expresses a sodium channel. The procedure, abridged:
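Test agents at half-step dilutions around 1 μM are added to plated cells in low-sodium HEPES buffer, then an aconitine/14C-guanidine mixture; after ambient-temperature incubation, cells are washed and counted. IC50 comes from a sigmoidal fit.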

A further data set addresses CYP3A4 (Homo sapiens, UniProt P08684). In words: Cytochrome P450 (CYP450) Inhibition Assay, CYP3A4 (Vivid fluorescence, BOMCC substrate). The settings on record: human, P450 Baculosomes (recombinant CYP3A4), probe BOMCC (Vivid substrate).

CYP3A4, sequence (P08684 whole entry): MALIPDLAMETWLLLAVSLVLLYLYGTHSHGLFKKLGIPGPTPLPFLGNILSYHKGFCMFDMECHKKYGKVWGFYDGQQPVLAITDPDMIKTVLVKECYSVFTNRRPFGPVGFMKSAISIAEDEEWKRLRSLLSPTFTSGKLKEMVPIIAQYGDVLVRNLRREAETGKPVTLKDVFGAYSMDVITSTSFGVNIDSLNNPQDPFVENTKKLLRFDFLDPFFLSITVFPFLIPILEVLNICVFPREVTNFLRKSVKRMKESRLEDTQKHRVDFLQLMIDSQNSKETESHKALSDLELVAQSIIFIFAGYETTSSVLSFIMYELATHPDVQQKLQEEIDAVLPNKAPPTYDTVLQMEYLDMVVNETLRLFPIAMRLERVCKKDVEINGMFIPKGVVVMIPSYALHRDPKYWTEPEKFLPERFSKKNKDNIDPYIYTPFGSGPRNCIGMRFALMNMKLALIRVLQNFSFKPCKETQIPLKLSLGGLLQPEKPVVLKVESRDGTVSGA

For `O=C1N(Cc2noc(C(F)F)n2)c2cccc(Cl)c2C12COc1cc3c(cc12)OCO3` (stereo not drawn) [Example 11.21], the melting point was in the range of 179 to 182 °C. In addition, the 50% inhibitory concentration (IC50) in the data set on sodium channel lay in the range of 1 to 100 nM. The inhibition at 10 µM at CYP3A4 was > 50%.

With `O=C1N(Cc2noc(C(F)F)n2)c2ccccc2C12COc1cc3c(cc12)OCO3` (stereo not drawn) [Example 11.22, 1-{[5-(difluoromethyl)-1,2,4-oxadiazol-3-yl]methyl}spiro[furo[2,3-f][1,3]benzodioxole-7,3′-indol]-2′(1′H)-one], the melting point was 137 to 139 °C. For the same molecule, the IC50 in the data set on sodium channel was in the range of 1 to 100 nM. Besides, on CYP3A4, the inhibition at 10 µM is > 50%.

Take `CC(C)(C)c1nc(CN2C(=O)C3(COc4cc5c(cc43)OCO5)c3ccccc32)no1` (stereo not drawn) [Example 11.23, 1′-[(5-tert-butyl-1,2,4-oxadiazol-3-yl)methyl]spiro[furo[2,3-f][1,3]benzodioxole-7,3′-indol]-2′(1′H)-one]: the melting point was 183 to 185 °C. For the same molecule, the IC50 in the data set on sodium channel fell in the range of 1 to 100 nM. Besides, the inhibition at 10 µM on CYP3A4 is > 50%.

Molecule `O=C1N(Cc2noc(C3CC3)n2)c2ccccc2C12COc1cc3c(cc12)OCO3` (stereo not drawn) [Example 11.24, 1′-[(5-cyclopropyl-1,2,4-oxadiazol-3-yl)methyl]spiro[furo[2,3-f][1,3]benzodioxole-7,3′-indol]-2′(1′H)-one] displayed a melting point of 136 to 137 °C. The 50% inhibitory concentration (IC50) with sodium channel was 1 to 100 nM. On CYP3A4, the inhibition at 10 µM is > 50%.

As to `CC(C)c1nc(CN2C(=O)C3(COc4cc5c(cc43)OCO5)c3c(Cl)cccc32)no1` (stereo not drawn) [Example 11.25, 4′-chloro-1′-{[5-(1-methylethyl)-1,2,4-oxadiazol-3-yl]methyl}spiro[furo[2,3-f][1,3]benzodioxole-7,3′-indol]-2′(1′H)-one], the melting point lay in the range of 165 to 167 °C. The IC50 in the data set on sodium channel was in the range of 1 to 100 nM. In addition, the inhibition at 10 µM on CYP3A4 was > 50%.

On to `CC(C)c1nc(CN2C(=O)C3(COc4cc5c(cc43)OCO5)c3ccccc32)no1` (stereo not drawn) [Example 11.26, 1′-{[5-(1-methylethyl)-1,2,4-oxadiazol-3-yl]methyl}spiro[furo[2,3-f][1,3]benzodioxole-7,3′-indol]-2′(1′H)-one], for which the melting point lay within 196 to 199 °C. In the data set with sodium channel, the IC50 was 1 to 100 nM. At CYP3A4, the inhibition at 10 µM is > 50%.

As for `O=C1N(Cc2cccc(-c3noc(C(F)(F)F)n3)c2)c2ccccc2C12COc1cc3c(cc12)CCO3` (stereo not drawn) [Example 11.28, 1′-{3-[5-(trifluoromethyl)-1,2,4-oxadiazol-3-yl]benzyl}-5,6-dihydrospiro[benzo[1,2-b:5,4-b′]difuran-3,3′-indol]-2′(1′H)-one], the melting point lay in the range of 182 to 188 °C. In addition, the IC50 in the data set with sodium channel fell in the range of 100 to 1000 nM. Also, the inhibition at 10 µM on CYP3A4 was > 50%.

`Cc1nnc(-c2ccc(CN3C(=O)C4(COc5cc6c(cc54)CCO6)c4ccccc43)cc2)[nH]1` (stereo not drawn) [Example 11.29, 1′-[4(5-methyl-4H-1,2,4-triazol-3-yl)benzyl]-5,6-dihydrospiro[benzo[1,2-b:5,4-b′]difuran-3,3′-indol]-2′(1′H)-one] had a melting point of 169 to 180 °C. Further, in the data set on sodium channel, the concentration for half-maximal inhibition (IC50) lay in the range of 100 to 1000 nM. Moreover, on CYP3A4, the inhibition at 10 µM was > 50%.

The molecule `O=C1N(CCCO)c2ccccc2C12COc1cc3c(cc12)CCO3` (stereo not drawn) [Example 11.34, 1′-(3-hydroxypropyl)-5,6-dihydrospiro[benzo[1,2-b:5,4-b′]difuran-3,3′-indol]-2′(1′H)-one] came in with a melting point of 54 to 56 °C. Besides, the IC50 in the data set on sodium channel fell in the range of 100 to 1000 nM. In addition, the inhibition at 10 µM on CYP3A4 was < 50%.

For `Nc1cccc2c1C1(COc3cc4c(cc31)CCO4)C(=O)N2C[C@H]1CCCO1` (stereo partly drawn) [Example 11.39, 4′-amino-1′-[(2R)-tetrahydrofuran-2-ylmethyl]-5,6-dihydrospiro[benzo[1,2-b:5,4-b′]difuran-3,3′-indol]-2′(1′H)-one], the melting point is 190 to 192 °C. In addition, the IC50 with sodium channel was in the range of 100 to 1000 nM. The inhibition at 10 µM on CYP3A4 is > 50%.

For `CN1C(=O)C2(COc3cc4c(cc32)CCO4)c2ccccc21` (stereo not drawn) [Example 11.43, 1′-methyl-5,6-dihydrospiro[benzo[1,2-b:5,4-b′]difuran-3,3′-indol]-2′(1′H)-one], the melting point was 187 to 190 °C. Besides, the concentration for half-maximal inhibition (IC50) in the data set with sodium channel is 100 to 1000 nM. The inhibition at 10 µM at CYP3A4 is < 50%.

Molecule `O=C1N(Cc2cccc(O)c2)c2ccccc2C12COc1cc3c(cc12)CCO3` (stereo not drawn) [Example 11.45, 1′-(3-hydroxybenzyl)-5,6-dihydrospiro[benzo[1,2-b:5,4-b′]difuran-3,3′-indol]-2′(1′H)-one] gave a melting point of 225 to 227 °C. For the same molecule, the IC50 with sodium channel is 100 to 1000 nM. Also, the inhibition at 10 µM on CYP3A4 is > 50%.

As to `Nc1ccc2c(c1)OCC21C(=O)N(C[C@H]2CCCO2)c2ccccc21` (stereo partly drawn) [Example 11.47, 6-amino-1′-[(2R)-tetrahydrofuran-2-ylmethyl]spiro[1-benzofuran-3,3′-indol]-2′(1′H)-one], the melting point was in the range of 71 to 74 °C. Moreover, the 50% inhibitory concentration (IC50) with sodium channel is 1000 to 10000 nM. Also, the inhibition at 10 µM on CYP3A4 is > 50%.

`CC(C)CCN1C(=O)C2(COc3cc(O)ccc32)c2ccccc21` (stereo not drawn) [Example 11.49, 6-hydroxy-1′-(3-methylbutyl)spiro[1-benzofuran-3,3′-indol]-2′(1′H)-one] yielded a melting point of 101 to 103 °C. Further, the concentration for half-maximal inhibition (IC50) in the data set on sodium channel lay within 1 to 100 nM. For the same molecule, the inhibition at 10 µM at CYP3A4 was > 50%.

Molecule `CC(C)CCN1C(=O)C2(COc3cc(O)c(C(=O)C(F)(F)F)cc32)c2ccccc21` (stereo not drawn) [Example 11.50, 6-hydroxy-1′-(3-methylbutyl)-5-(trifluoroacetyl)spiro[1-benzofuran-3,3′-indol]-2′(1′H)-one] displayed a melting point of 87 to 88 °C. The IC50 in the data set on sodium channel is 1000 to 10000 nM. The inhibition at 10 µM at CYP3A4 is > 50%.

`O=C1N(Cc2ccc(C(F)(F)F)o2)c2ccccc2C12COc1cc(N[C@@H]3CCNC3)ccc12` (stereo partly drawn) [Example 11.52, 6-[(3R)-pyrrolidin-3-ylamino]-1′-{[5-(trifluoromethyl)furan-2-yl]methyl}spiro[1-benzofuran-3,3′-indol]-2′(1′H)-one] yielded a melting point of 122 to 125 °C. The 50% inhibitory concentration (IC50) with sodium channel is 100 to 1000 nM. Besides, the inhibition at 10 µM on CYP3A4 was > 50%.

On to `O=C1N(C[C@H]2CCCO2)c2ccccc2C12COc1cc(O)ccc12` (stereo partly drawn) [Example 11.53, 6-hydroxy-1′-[(2R)-tetrahydrofuran-2-ylmethyl]spiro[1-benzofuran-3,3′-indol]-2′(1′H)-one], for which the melting point was 72 to 74 °C. In addition, the 50% inhibitory concentration (IC50) in the data set with sodium channel was 100 to 1000 nM. Besides, the inhibition at 10 µM at CYP3A4 is < 50%.

In turn, `Cl.O=C1N(C[C@H]2CCCO2)c2ccccc2C12COc1cc(O[C@H]3CCNC3)ccc12` (stereo partly drawn) [Example 11.56, 6-[(3S)-pyrrolidin-3-yloxy]-1′-[(2R)-tetrahydrofuran-2-ylmethyl]spiro[1-benzofuran-3,3′-indol]-2′(1′H)-one hydrochloride] returned a melting point of 119 to 121 °C. In the data set with sodium channel, the IC50 was 1000 to 10000 nM. Also, the inhibition at 10 µM on CYP3A4 was < 50%.

`Cl.O=C1N(C[C@H]2CCCO2)c2ccccc2C12COc1cc(O[C@@H]3CCNC3)ccc12` (stereo partly drawn) [Example 11.58, 6-[(3R)-pyrrolidin-3-yloxy]-1′-[(2R)-tetrahydrofuran-2-ylmethyl]spiro[1-benzofuran-3,3′-indol]-2′(1′H)-one hydrochloride] returned a melting point of 120 to 130 °C. Moreover, the 50% inhibitory concentration (IC50) in the data set on sodium channel lay within 1000 to 10000 nM. For the same molecule, the inhibition at 10 µM at CYP3A4 is < 50%.
